Laboratory results taken from paper PMC9962224, “Novel Inhibitors of Acetyl- and Butyrylcholinesterase Derived from Benzohydrazides: Synthesis, Evaluation and Docking Study” (Pharmaceuticals, 2023).
Like-named read-outs stand apart in the source and are kept apart here.

Legend:
[1] = target: T1, AChE (obtained from electric eel; EeAChE) (Electrophorus electricus, UniProt O42275); test: biochemical; format: biochemical; conditions: for Selectivity BChE/AChE: SI = ratio of IC50 for BChE/IC50 for AChE, above 1 = stronger inhibition of AChE; for IC50: electric eel AChE, mean ± SD from three independent experiments
T1 construct: AChE (obtained from electric eel); purchased Merck (Prague, Czech Republic); host or cells: electric eel (natural source)
T1 sequence (O42275 24-633): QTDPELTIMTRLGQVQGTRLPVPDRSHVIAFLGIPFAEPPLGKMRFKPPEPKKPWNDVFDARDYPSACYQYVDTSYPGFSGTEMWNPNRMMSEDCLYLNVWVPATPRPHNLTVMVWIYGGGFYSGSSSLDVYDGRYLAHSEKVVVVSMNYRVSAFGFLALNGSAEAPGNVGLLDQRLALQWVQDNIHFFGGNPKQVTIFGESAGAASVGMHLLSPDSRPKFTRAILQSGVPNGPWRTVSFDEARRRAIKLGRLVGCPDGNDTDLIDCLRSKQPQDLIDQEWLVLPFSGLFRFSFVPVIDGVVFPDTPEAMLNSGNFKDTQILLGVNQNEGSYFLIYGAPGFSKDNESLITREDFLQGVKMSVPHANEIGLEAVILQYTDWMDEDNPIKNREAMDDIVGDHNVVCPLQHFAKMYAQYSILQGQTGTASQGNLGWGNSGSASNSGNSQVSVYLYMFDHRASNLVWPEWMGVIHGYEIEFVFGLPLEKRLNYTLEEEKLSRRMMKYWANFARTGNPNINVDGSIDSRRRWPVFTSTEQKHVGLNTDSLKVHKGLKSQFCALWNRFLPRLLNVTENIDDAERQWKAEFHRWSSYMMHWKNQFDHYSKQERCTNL
Description: (§1) Hydrazinecarboxamides 1–3 were examined in vitro for their potential to inhibit the function of AChE (obtained from electric eel) and BChE from equine serum using Ellman’s spectrophotometric method (Table 2). The activities are expressed as IC50 values, i.e., concentrations leading to 50% inhibition of enzymatic activity. Based on the IC50 values for AChE and BChE, we calculated selectivity indexes (SI) that quantified the selectivity for each cholinesterase. SI is the ratio of IC50 for BChE/IC50 for AChE.
(§2) The enzyme activity in the final reaction mixture (2000 µL) was 0.2 U/mL, the concentration of ATCh (or BTCh) was 40 µM, and the concentration of DTNB was 100 µM for all reactions. The investigated derivatives were dissolved in DMSO and then diluted with demineralized water (conductivity 3 μS, equipment supplier BKG Water Treatment, Hradec Králové, Czech Republic) to a concentration of 1000 µM. Five different inhibitor concentrations were used for all tested compounds in the final reaction mixture. The final concentration of DMSO was 0.2%. All experiments were performed in triplicate. The average values of the reaction rate (v0-uninhibited reaction, vi-inhibited reaction) were used to construct the dependence of v0/vi on the concentration of inhibitors. IC50 values were calculated from obtained regression curve equations.
(§3) Acetylcholinesterase originating from electric eels (Electrophorus electricus L.; EeAChE) and butyrylcholinesterase obtained from equine serum (EqBChE) were used.

[2] = target: T2, BChE from equine serum (EqBChE) (Equus caballus, UniProt P81908); test: biochemical; format: biochemical; conditions: equine serum BChE; mean ± SD from three independent experiments
T2 construct: BChE from equine serum; purchased Merck (Prague, Czech Republic); host or cells: equine serum (natural source)
T2 sequence (P81908 whole entry): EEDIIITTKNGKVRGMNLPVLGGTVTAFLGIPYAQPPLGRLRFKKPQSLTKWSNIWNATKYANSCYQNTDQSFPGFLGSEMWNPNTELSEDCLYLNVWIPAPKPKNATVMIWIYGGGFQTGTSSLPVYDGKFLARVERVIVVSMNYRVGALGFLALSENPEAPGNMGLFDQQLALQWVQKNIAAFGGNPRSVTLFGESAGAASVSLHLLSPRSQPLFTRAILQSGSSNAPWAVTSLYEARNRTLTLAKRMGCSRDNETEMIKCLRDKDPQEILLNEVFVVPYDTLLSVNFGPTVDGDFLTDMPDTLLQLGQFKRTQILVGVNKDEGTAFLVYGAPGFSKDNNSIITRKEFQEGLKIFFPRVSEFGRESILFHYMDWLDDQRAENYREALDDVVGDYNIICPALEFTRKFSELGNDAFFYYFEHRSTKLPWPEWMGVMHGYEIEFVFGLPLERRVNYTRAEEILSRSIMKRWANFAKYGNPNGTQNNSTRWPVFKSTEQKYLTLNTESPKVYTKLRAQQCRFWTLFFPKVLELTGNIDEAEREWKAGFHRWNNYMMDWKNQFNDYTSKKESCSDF
Description: as §1, §2, §3

[3] = target: T2, BChE from equine serum (EqBChE); conditions: parent N-alkyl-2-[4-(trifluoromethyl)benzoyl]hydrazine-1-carboxamides; cited from earlier work

Compound	Selectivity BChE/AChE [1]	IC50 [1]	IC50 [2]	IC50 [3]
CCCCCCCCCCCCCNC(=O)NNC(=O)c1ccccc1[N+](=O)[O-] [2h, 2-(2-Nitrobenzoyl)-N-tridecylhydrazine-1-carboxamide]	>9.1	54.9 ± 1.08 µM	> 500 µM	
CNC(=O)NNC(=O)c1cccc(Br)c1 [2i, 2-(3-Bromobenzoyl)-N-methylhydrazine-1-carboxamide]	6.8	51.9 ± 2 µM	354 ± 8.79 µM	
CCCCCCCCCCCCCNC(=O)NNC(=O)c1cccc(Br)c1 [2j, 2-(3-Bromobenzoyl)-N-tridecylhydrazine-1-carboxamide]	>11.3	44.34 ± 0.1 µM	> 500 µM	
CNC(=O)NNC(=O)c1ccccc1Br [2k, 2-(2-Bromobenzoyl)-N-methylhydrazine-1-carboxamide]	>8.4	59.4 ± 1.83 µM	> 500 µM	
CCCCCCCCCCCCCNC(=O)NNC(=O)c1ccccc1Br [2l, 2-(2-Bromobenzoyl)-N-tridecylhydrazine-1-carboxamide]	>9.3	53.99 ± 0.44 µM	> 500 µM	
CNC(=O)NNC(=O)Cc1ccc(C(F)(F)F)cc1 [3a, N-Methyl-2-{2-[4-(trifluoromethyl)phenyl]acetyl}hydrazine-1-carboxamide]	1.9	68.51 ± 0.25 µM	131 ± 9.7 µM	
CCCCCCCCCCCCCNC(=O)NNC(=O)Cc1ccc(C(F)(F)F)cc1 [3b, N-Tridecyl-2-{2-[4-(trifluoromethyl)phenyl]acetyl}hydrazine-1-carboxamide]	3.6	81.69 ± 0.45 µM	292.9 ± 1.72 µM	
CNC(=O)NNS(=O)(=O)c1ccc(C(F)(F)F)cc1 [3c, N-Methyl-2-{[4-(trifluoromethyl)phenyl]sulfonyl}hydrazine-1-carboxamide]		71.1 ± 0.94 µM	425 ± 13.2 µM	
CCCCCCCCCCCCCNC(=O)NNS(=O)(=O)c1ccc(C(F)(F)F)cc1 [3d, N-Tridecyl-2-{[4-(trifluoromethyl)phenyl]sulfonyl}hydrazine-1-carboxamide]	> 8.4	58.8 ± 0.96 µM	339 ± 11.6 µM	
CCCCCCCCCCCCCNC(=O)NNC(=O)c1ccc(C(F)(F)F)cc1 [P2]				277 ± 10.3 µM
